Measured values taken from the supplement of paper PMC7695840.
Counter-ions that a name gives are not always drawn.

Assays:
[1] = tested on: Staphylococcus aureus MW2 (mecA+); assay: IC50 (growth, competition assay); settings: cefoxitin: subinhibitory
Method in brief: (§1)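 Signals from DsRed (540/590) and GFP (485/520) were scaled on every plate between single-strain control medians, with No Treatment then set to 0.5. The cells were a 1:1 mix of pre-induced fluorescent S. aureus MW2 strains with and without the resistance gene, grown unshaken for 20 h at 37 °C and 90% humidity in LB in 1536-well plates under a subinhibitory drug dose set each day. Each strain's IC50 was defined as the dose halving the No Treatment signal, or the maximal signal.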

[2] = tested on: Staphylococcus aureus MW2 delta-mecA (mecA-); assay: IC50 (growth, competition assay); settings: cefoxitin: subinhibitory
Method in brief: as §1

SMILES | IC50 ([1]; fluorescent label: DsRed) | IC50 ([1]; fluorescent label: GFP) | IC50 ([2]; fluorescent label: DsRed) | IC50 ([2]; fluorescent label: GFP)
Cc1oc(=O)oc1CN1CCN(c2cc3c(cc2F)c(=O)c(C(=O)O)c2n3C(C)S2)CC1 (configuration not stated) [QUISNON] | < 9.85 µM | < 9.85 µM | < 9.85 µM | < 9.85 µM
CCCCCCCCCCCCCCCCC(C(=O)O)C(O)(CC(=O)O)C(=O)O (configuration not stated) [AGARIC ACID] | 12.8 µM | 20.6 µM | < 9.85 µM | < 9.85 µM
CCOC(=O)C1=C(C)NC(C)=C(C(=O)OC)C1c1cccc(Cl)c1Cl (configuration not stated) [Felodipine] | 27.8 µM | 32.3 µM | < 9.85 µM | < 9.85 µM
CCN1CCN(C(=O)N[C@@H](C(=O)N[C@@H]2C(=O)N3[C@@H]2SC(C)(C)[C@@H]3C(=O)O)c2ccccc2)C(=O)C1=O [PIPRACIL] | 26.8 µM | 25.2 µM | < 9.85 µM | < 9.85 µM
Cc1cc(Nc2ncc(Cl)c(Nc3ccccc3S(=O)(=O)C(C)C)n2)c(OC(C)C)cc1C1CCNCC1 [Ceritinib (LDK378)] | 29 µM | 27.7 µM | < 9.85 µM | < 9.85 µM
Cc1onc(-c2c(Cl)cccc2Cl)c1C(=O)N[C@@H]1C(=O)N2[C@@H]1SC(C)(C)[C@@H]2C(=O)O [Dicloxacillin Sodium] | < 9.85 µM | < 9.85 µM | < 9.85 µM | < 9.85 µM
Cc1cc(C(C)(C)CC(C)(C)C)ccc1OCCOCC[N+](C)(C)Cc1ccccc1 [DELAVAN] | < 9.85 µM | < 9.85 µM | < 9.85 µM | < 9.85 µM
Cc1cc(N)c2ccccc2[n+]1CCCCCCCCCC[n+]1c(C)cc(N)c2ccccc21 [FLUOMIZIN] | 13.2 µM | 12.2 µM | < 9.85 µM | < 9.85 µM
Cc1c(-c2ccc(O)cc2)n(Cc2ccc(OCCN3CCCCCC3)cc2)c2ccc(O)cc12 [Bazedoxifene HCl] | 56.8 µM | 56.6 µM | 13.5 µM | 28.3 µM
COc1cc(/C=C/C(=O)CC(=O)/C=C/c2ccc(O)c(OC)c2)ccc1O [Curcumin] | 34.7 µM | 53.8 µM | 4.13 µM | 3.73 µM
CC1=C(O)C(=O)C=C2C1=CC=C1[C@@]2(C)CC[C@@]2(C)[C@@H]3C[C@](C)(C(=O)O)CC[C@]3(C)CC[C@]12C [Celastrol] | 1.67 µM | 1.73 µM | < 0.498 µM | < 0.498 µM
CCOC(=O)[C@@H](N)Cc1ccc(-c2cc(O[C@H](c3ccc(Cl)cc3-n3ccc(C)n3)C(F)(F)F)nc(N)n2)cc1 [LX1606 hippurate] | 21.7 µM | 19.2 µM | < 9.85 µM | < 9.85 µM
Cc1onc(-c2ccccc2)c1C(=O)N[C@@H]1C(=O)N2[C@@H]1SC(C)(C)[C@@H]2C(=O)O [Oxacillin sodium monohydrate] | < 9.85 µM | < 9.85 µM | < 9.85 µM | < 9.85 µM
CO/N=C(\C(=O)N[C@@H]1C(=O)N2C(C(=O)O)=C(COC(N)=O)CS[C@H]12)c1ccco1 [ZINACEF] | 21.3 µM | 19.3 µM | < 9.85 µM | < 9.85 µM
CN(C)c1ccc(O)c2c1C[C@H]1C[C@H]3[C@H](N(C)C)C(O)=C(C(N)=O)C(=O)[C@@]3(O)C(O)=C1C2=O [SOLODYN] | < 9.85 µM | < 9.85 µM | < 9.85 µM | < 9.85 µM
CC(C)(C)c1cc(C(C)(C)C)c(NC(=O)c2c[nH]c3ccccc3c2=O)cc1O [Ivacaftor (VX-770)] | 9.86 µM | 14.8 µM | 1.27 µM | 1.6 µM
Cc1ccc(S(=O)(=O)c2ccc([N+](=O)[O-])o2)cc1 | < 9.85 µM | < 9.85 µM | < 9.85 µM | < 9.85 µM
OC(c1cc(C(F)(F)F)nc2c(C(F)(F)F)cccc12)C1CCCCN1 (configuration not stated) [LARIAM] | < 9.85 µM | < 9.85 µM | < 9.85 µM | < 9.85 µM
O=C(O)Cc1cc(I)c(Oc2cc(I)c(O)c(I)c2)c(I)c1 [TETRAC] | < 9.85 µM | < 9.85 µM | < 9.85 µM | < 9.85 µM
CC(C)c1cc2c(c(O)c1O)[C@@]1(C(=O)O)CCCC(C)(C)[C@@H]1CC2 [CARNOSIC ACID] | 27.2 µM | 38.8 µM | < 9.85 µM | < 9.85 µM
Cc1cc(CC(C)CC(C)(C)C)n(O)c(=O)c1 (configuration not stated) [OCTOPIROX] | 120 µM | 106 µM | 89.5 µM | 70 µM
Cc1cc(O)c(C(=O)N[C@@H](C(=O)N[C@@H]2C(=O)N3C(C(=O)O)=C(CSc4nnnn4C)CS[C@H]23)c2ccc(O)cc2)cn1 [CEFPIRAN] | < 9.85 µM | < 9.85 µM | < 9.85 µM | < 9.85 µM
Cc1coc2c1C(=O)C(=O)c1c-2ccc2c(C)cccc12 [Tanshinone I] | 130 µM | > 150 µM | 76.7 µM | 64 µM
CN(C)[C@@H]1C(O)=C(C(N)=O)C(=O)[C@@]2(O)C(O)=C3C(=O)c4c(O)cccc4[C@@](C)(O)[C@H]3[C@H](O)[C@@H]12 [TERRAMYCIN] | < 9.85 µM | < 9.85 µM | < 9.85 µM | < 9.85 µM
CC(C)(C)c1ccc(C(=O)CCCN2CCC(OC(c3ccccc3)c3ccccc3)CC2)cc1 [Ebastine] | 16.4 µM | 15.3 µM | < 9.85 µM | < 9.85 µM
CC[C@@H](C(=O)[C@@H](C)[C@@H](O)[C@H](C)CCc1ccc(C)c(O)c1C(=O)O)[C@H]1O[C@](CC)([C@H]2CC[C@](O)(CC)[C@H](C)O2)C[C@@H]1C [BOVOTEC] | < 9.85 µM | < 9.85 µM | < 9.85 µM | < 9.85 µM
CO/N=C(\C(=O)N[C@@H]1C(=O)N2C(C(=O)O)=C(CSc3nc(=O)c(O)nn3C)CS[C@H]12)c1csc(N)n1 [Ceftriaxone sodium] | 14.9 µM | 14.9 µM | < 9.85 µM | < 9.85 µM
C[C@H]1c2cccc(O)c2C(=O)C2=C(O)[C@]3(O)C(=O)C(C(N)=O)=C(O)[C@@H](N(C)C)[C@@H]3[C@@H](O)[C@@H]21 [PERIOSTAT] | < 9.85 µM | < 9.85 µM | < 9.85 µM | < 9.85 µM
